Laboratory results as given in paper PMC9240354, “Pharmacokinetics, Pharmacodynamics and Antiviral Efficacy of the MEK Inhibitor Zapnometinib in Animal Models and in Humans” (Frontiers in Pharmacology, 2022).
In brackets after ≈: the same amount, converted by molar mass.

Tests used:
SARS-CoV-2 = test system: SARS-CoV-2; parameters: method as in Schreiber et al., 2022; conditions: reduction in viral growth in cell lines; ref Schreiber et al., 2022; cited from earlier work
in vivo [1] = conditions: C57BL/6, mouse
in vivo [2] = conditions: Syrian, hamster; for AUC(0-t) / Cmax / Tmax: po
[3] = test system: influenza A and B viruses; parameters: method as in Laure et al., 2020; conditions: in vitro, ref Laure et al., 2020, read-out: EC50 antiviral efficacy; cited from earlier work
MEK = MEK inhibition in PBMCs of treated beagle dogs (pERK/ERK, Wes); format: in vivo; conditions: formulation 3, plasma concentrations until Cmax vs ERK phosphorylation in PBMCs
Procedure: PBMCs were isolated from the same blood samples (30 µl mouse blood, 50 µl hamster blood, or 1 ml dog blood) used for pharmacokinetic analysis. After plasma separation as described in the section above (Blood sampling and preparation of plasma samples), the remaining red blood cells were lysed by adding 1 volume of red blood cell (RBC) lysis buffer (Thermo Fisher Scientific, Waltham, MA, United States) (300 µl for mice, 500 µl for hamster, and 10 ml for dogs). The samples were incubated for 15 min at RT and centrifuged at 500 x g for 5 min (RT). The supernatant was removed completely, and the pellet was washed twice with PBS. The PBMC cell pellets were store at −80°C until further analysis. […]
The pharmacodynamic assessment was performed using the Wes™ (Simple Western™) system which uses capillary electrophoresis to separate, identify and quantify proteins of interest. A chemiluminescence signal for each identified protein is detected and the area under the peak is calculated, which is then used for quantification. The 0.1x Sample Buffer, 400 mM dithiothreitol (DTT) solution, 5x Fluorescence Master Mix, and the Biotinylated Ladder (ProteinSimple®, Abingdon, Oxford, United Kingdom) were prepared according to manufacturer’s instructions. […] The anti-rabbit secondary antibody (Cat# DM-001) was also purchased from ProteinSimple® and was ready to use. […]

## O=C(O)c1ccc(F)c(F)c1Nc1ccc(I)cc1Cl [zapnometinib, 2-(2-Chloro-4-Iodophenylamino)-N-3,4-Difluoro benzoic acid]
SARS-CoV-2
  anti-SARS-CoV-2 activity: potent anti-SARS-CoV-2 activity
In vivo [1]
  half-life: 8 h
In vivo [1]; po, 25 mg/kg
  AUC: 1390 µg·h/mL
  Cmax: 69 ± 24 µg/mL
In vivo [1]; po, 25 mg/kg, Tmax,1, mice, 25 mg/kg p.o., after first treatment
  Tmax: 2 h
In vivo [1]; po, 25 mg/kg, Tmax,2, mice, 25 mg/kg p.o. twice, second dose at 8 h
  Tmax: 10 h
In vivo [2]
  half-life: 8 h
In vivo [2]; 15 mg/kg
  AUC(0-t): 121 ± 4 µg·h/mL
  Cmax: 15 ± 1 µg/mL
  Tmax: 3 ± 1 h
In vivo [2]; 60 mg/kg
  AUC(0-t): 623 ± 87 µg·h/mL
  Cmax: 61 ± 2 µg/mL
  Tmax: 3 ± 1 h
[3]
  EC50: 4.2 to 6.4 µM
MEK
  IC50 (plasma concentration reducing ERK phosphorylation by 50% compared to pre-dose): 12.5 µg/mL (≈ 30.5 µM)
